Several values for one entry are separate records, joined by “and”; a condition that tells them apart may be missing. Equal values may be shown once. Read-outs that look alike come from different tables or passages of the source.
Assay: Topotecan PK following Compound 1 infusion
Assay type: in vivo, human
Description: Blood samples were obtained prior to dosing, at the end of the 30-minute infusion (EOI), and at 0.5, 1, 1.5, 2, 2.5, 4, 6, 8, and 24 hours after the end of infusion. Analysis of plasma concentration versus time data for calculation of standard pharmacokinetic (PK) parameters following intravenous infusion administration was conducted using Phoenix WinNonlin version 6.3 using a nominal infusion duration and scheduled blood sampling times. In Cohort 2 there were 3 subjects who received 1.25 mg/m^2 of topotecan once daily on Days 1 to 5. In Cohort 3 there were 4 subjects who received 0.75 mg/m^2 of topotecan once daily on Days 1 to 5.

[1] = Topotecan 0.75 mg/m^2 (Cohort 3) with Compound 1 200 mg/m^2, Day 1, Max
[2] = Topotecan 0.75 mg/m^2 (Cohort 3) with Compound 1 200 mg/m^2, Day 1, Min
[3] = Topotecan 0.75 mg/m^2 (Cohort 3) with Compound 1 200 mg/m^2, Day 1, individual subjects, monohydrochloride
[4] = Topotecan 0.75 mg/m^2 (Cohort 3) with Compound 1 200 mg/m^2, Day 4, Max
[5] = Topotecan 0.75 mg/m^2 (Cohort 3) with Compound 1 200 mg/m^2, Day 4, Min
[6] = Topotecan 0.75 mg/m^2 (Cohort 3) with Compound 1 200 mg/m^2, Day 4, individual subjects, monohydrochloride
[7] = Topotecan 1.25 mg/m^2 (Cohort 2) with Compound 1 200 mg/m^2, Day 1, Max
[8] = Topotecan 1.25 mg/m^2 (Cohort 2) with Compound 1 200 mg/m^2, Day 1, Min
[9] = Topotecan 1.25 mg/m^2 (Cohort 2) with Compound 1 200 mg/m^2, Day 1, individual subjects, monohydrochloride
[10] = Topotecan 1.25 mg/m^2 (Cohort 2) with Compound 1 200 mg/m^2, Day 4, Max
[11] = Topotecan 1.25 mg/m^2 (Cohort 2) with Compound 1 200 mg/m^2, Day 4, Min
[12] = Topotecan 1.25 mg/m^2 (Cohort 2) with Compound 1 200 mg/m^2, Day 4, individual subjects, monohydrochloride
[13] = Topotecan […]^2 (Cohort 1) with Compound 1 200 mg/m^2, Day 1, Max
[14] = Topotecan […]^2 (Cohort 1) with Compound 1 200 mg/m^2, Day 1, Min
[15] = Topotecan […]^2 (Cohort 1) with Compound 1 200 mg/m^2, Day 1, individual subjects, monohydrochloride
[16] = Topotecan […]^2 (Cohort 1) with Compound 1 200 mg/m^2, Day 4, Max
[17] = Topotecan […]^2 (Cohort 1) with Compound 1 200 mg/m^2, Day 4, Min

CC[C@@]1(O)C(=O)OCc2c1cc1n(c2=O)Cc2cc3c(CN(C)C)c(O)ccc3nc2-1.Cl [topotecan, (S)-10-[(dimethylamino)methyl]-4-ethyl-4,9-dihydroxy-1H-pyrano[3′,4′:6,7]indolizino[1,2-b]quinoline-3,14(4H,12H)-dione monohydrochloride]
AUC24.5 [1]: 118 ng·h/mL
AUCx5 [1]: 78600 nM·min
Cmax [1]: 38.5 ng/mL
t½ [1]: 4.70 h
AUCinf (Topotecan 0.75 mg/m^2 (Cohort 3) with Compound 1 200 mg/m^2, Day 1, Max, monohydrochloride): 120 h*ng/mL and 15700 min*nM
AUC24.5 [2]: 75.0 ng·h/mL
AUCx5 [2]: 49700 nM·min
Cmax [2]: 17.9 ng/mL
t½ [2]: 4.04 h
AUCinf (Topotecan 0.75 mg/m^2 (Cohort 3) with Compound 1 200 mg/m^2, Day 1, Min, monohydrochloride): 75.9 h*ng/mL and 9950 min*nM
AUC24.5 [3]: 75.0 ng·h/mL and 118 ng·h/mL and 94.7 ng·h/mL
AUCinf [3]: 75.9 h*ng/mL and 9950 min*nM and 120 h*ng/mL and 15700 min*nM and 96.8 h*ng/mL and 12700 min*nM
AUCx5 [3]: 49700 nM·min and 78600 nM·min and 63400 nM·min
Cmax [3]: 20.8 ng/mL and 17.9 ng/mL and 38.5 ng/mL and 32.0 ng/mL
t½ [3]: 4.04 h and 4.27 h and 4.70 h
Cmax [4]: 30.7 ng/mL
t½ [4]: 5.07 h
AUCτ (Topotecan 0.75 mg/m^2 (Cohort 3) with Compound 1 200 mg/m^2, Day 4, Max, monohydrochloride): 112 h*ng/mL and 14700 min*nM
Cmax [5]: 18.4 ng/mL
t½ [5]: 4.63 h
AUCτ (Topotecan 0.75 mg/m^2 (Cohort 3) with Compound 1 200 mg/m^2, Day 4, Min, monohydrochloride): 74.4 h*ng/mL and 9740 min*nM
AUCτ [6]: 74.4 h*ng/mL and 9740 min*nM and 99.7 h*ng/mL and 13100 min*nM and 112 h*ng/mL and 14700 min*nM
Cmax [6]: 18.4 ng/mL and 30.7 ng/mL and 22.6 ng/mL
t½ [6]: 5.07 h and 4.68 h and 4.73 h
AUC24.5 [7]: 247 ng·h/mL
AUCx5 [7]: 166000 nM·min
Cmax [7]: 94.1 ng/mL
t½ [7]: 5.09 h
AUCinf (Topotecan 1.25 mg/m^2 (Cohort 2) with Compound 1 200 mg/m^2, Day 1, Max, monohydrochloride): 254 h*ng/mL and 33300 min*nM
AUC24.5 [8]: 120 ng·h/mL
AUCx5 [8]: 80400 nM·min
Cmax [8]: 39.3 ng/mL
t½ [8]: 4.78 h
AUCinf (Topotecan 1.25 mg/m^2 (Cohort 2) with Compound 1 200 mg/m^2, Day 1, Min, monohydrochloride): 123 h*ng/mL and 16100 min*nM
AUC24.5 [9]: 247 ng·h/mL and 120 ng·h/mL
AUCx5 [9]: 106000 nM·min and 166000 nM·min and 80400 nM·min
Cmax [9]: 94.1 ng/mL and 39.3 ng/mL
t½ [9]: 5.09 h and 4.92 h
Cmax [10]: 104 ng/mL
t½ [10]: 5.97 h
AUCτ (Topotecan 1.25 mg/m^2 (Cohort 2) with Compound 1 200 mg/m^2, Day 4, Max, monohydrochloride): 231 h*ng/mL and 30300 min*nM
Cmax [11]: 33.1 ng/mL
t½ [11]: 4.98 h
AUCτ (Topotecan 1.25 mg/m^2 (Cohort 2) with Compound 1 200 mg/m^2, Day 4, Min, monohydrochloride): 124 h*ng/mL and 16300 min*nM
AUCτ [12]: 231 h*ng/mL and 30300 min*nM and 124 h*ng/mL and 16300 min*nM
Cmax [12]: 104 ng/mL and 33.1 ng/mL
t½ [12]: 5.97 h and 4.98 h
AUC24.5 [13]: 169 ng·h/mL
AUCx5 [13]: 112000 nM·min
Cmax [13]: 98.8 ng/mL
t½ [13]: 4.56 h
AUCx5 [14]: 86600 nM·min
Cmax [14]: 40.2 ng/mL
t½ [14]: 4.11 h
AUCinf (Topotecan […]^2 (Cohort 1) with Compound 1 200 mg/m^2, Day 1, Min, monohydrochloride): 17300 nM·min
AUC24.5 [15]: 169 ng·h/mL
AUCx5 [15]: 112000 nM·min
t½ [15]: 4.11 h
Cmax [16]: 122 ng/mL
t½ [16]: 5.11 h
Cmax [17]: 56.5 ng/mL
t½ [17]: 4.64 h
AUCτ (Topotecan […]^2 (Cohort 1) with Compound 1 200 mg/m^2, Day 4, Min, monohydrochloride): 18800 nM·min
t½ (Topotecan […]^2 (Cohort 1) with Compound 1 200 mg/m^2, Day 4, individual subjects, monohydrochloride): 4.64 h
AUC (human, plasma, intravenous, Topotecan 0.75 mg/m^2 (Cohort 3) with Compound 1 200 mg/m^2, Day 1, Mean, read-out: AUC24.5): 92.8 ng·h/mL
AUC(0-inf) (human, plasma, intravenous, Topotecan 0.75 mg/m^2 (Cohort 3) with Compound 1 200 mg/m^2, Day 1, Mean, read-out: AUCinf (converted)): 94.4 ng·h/mL and 0.207 µM·h
AUC (human, plasma, intravenous, Topotecan 0.75 mg/m^2 (Cohort 3) with Compound 1 200 mg/m^2, Day 1, Mean, read-out: AUCx5 (converted)): 1.03 µM·h
